biological target: PD-1/PD-L1 (Homo sapiens (Human), UniProt Q9NZQ7); experiment: PD-1/PD-L1 Homogeneous Time-Resolved Fluorescence (HTRF) Binding Assay; conditions: recombinant human PD-1 (3 nM) and PD-L1 (10 nM), 25° C., PBS pH 7.4
Summary of the method: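 Fc-tagged human PD-1 (25-167, 3 nM) and His-tagged PD-L1 (19-238, 10 nM) preincubated with inhibitor 40 min in PBS pH 7.4, 0.05% Tween-20, 0.1% BSA, 1% DMSO, 25 °C. Binding detected by HTRF (Eu anti-IgG/APC anti-His, 665/620 nm) after 60 min; IC50 from percent control activity.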

Sequence of PD-1/PD-L1 (Q9NZQ7 19-238): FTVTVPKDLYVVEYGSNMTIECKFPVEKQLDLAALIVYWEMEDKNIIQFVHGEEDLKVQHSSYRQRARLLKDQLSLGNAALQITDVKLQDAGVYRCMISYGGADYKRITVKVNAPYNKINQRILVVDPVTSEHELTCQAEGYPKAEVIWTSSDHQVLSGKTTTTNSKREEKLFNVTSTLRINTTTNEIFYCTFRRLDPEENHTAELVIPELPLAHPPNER

Row | Compound | IC50
1 | Cc1c(-c2nc3cc(CN4CC[C@@H](C(=O)O)C4)cc(C#N)c3o2)cccc1-c1cccc(NC(=O)c2nc3c(n2C)CC(C)N(C)C3)c1Cl (stereo partly drawn) [Example 160, (3R)-1-((2-(2′-chloro-2-methyl-3′-(1,5,6-trimethyl-4,5,6,7-tetrahydro-1H-imidazo[4,5-c]pyridine-2-carboxamido)biphenyl-3-yl)-7-cyanobenzo[d]oxazol-5-yl)methyl)pyrrolidine-3-carboxylic acid] | ≤ 10 nM
2 | Cc1c(-c2nc3cc(CN4CC[C@@H](C(=O)O)C4)cc(C#N)c3o2)cccc1-c1cccc(-c2nc3c(s2)CN(C(C)CO)CC3)c1C (stereo partly drawn) [Example 66, (3R)-1-((7-cyano-2-(3′-(5-(1-hydroxypropan-2-yl)-4,5,6,7-tetrahydrothiazolo[5,4-c]pyridin-2-yl)-2,2′-dimethyl-[1,1′-biphenyl]-3-yl)benzo[d]oxazol-5-yl)methyl)pyrrolidine-3-carboxylic acid] | ≤ 10 nM
3 | Cc1c(-c2nc3c(o2)CN(C(=O)CN2CC[C@H](C(=O)O)C2)C3)cccc1-c1cccc(-c2nc3cc(CN4CC[C@@H](O)C4)cc(C#N)c3o2)c1C [Example 131, (S)-1-(2-(2-(3′-(7-cyano-5-(((R)-3-hydroxypyrrolidin-1-yl)methyl)benzo[d]oxazol-2-yl)-2,2′-dimethyl-[1,1′-biphenyl]-3-yl)-4,6-dihydro-5H-pyrrolo[3,4-d]oxazol-5-yl)-2-oxoethyl)pyrrolidine-3-carboxylic acid] | ≤ 10 nM
4 | Cc1c(-c2nc3c(o2)CN(C(=O)CN(C)C)C3)cccc1-c1cccc(-c2nc3cc(CN4CCC(C(=O)O)CC4)cc(C#N)c3o2)c1C [Example 246, 1-((7-cyano-2-(3′-(5-(dimethylglycyl)-5,6-dihydro-4H-pyrrolo[3,4-d]oxazol-2-yl)-2,2′-dimethyl-[1,1′-biphenyl]-3-yl)benzo[d]oxazol-5-yl)methyl)piperidine-4-carboxylic acid] | ≤ 10 nM
5 | Cc1c(-c2nc3cc(CN4CC[C@H](C(=O)O)C4)cc(C#N)c3o2)cccc1-c1cccc(NC(=O)c2nc3c(n2C)CCN(C)C3)c1Cl [Example 50, (S)-1-((2-(2′-chloro-3′-(1,5-dimethyl-4,5,6,7-tetrahydro-1H-imidazo[4,5-c]pyridine-2-carboxamido)-2-methylbiphenyl-3-yl)-7-cyanobenzo[d]oxazol-5-yl)methyl)pyrrolidine-3-carboxylic acid] | ≤ 10 nM
6 | Cc1c(-c2nc3cc(CN4CCCC[C@H]4C(=O)O)cc(Cl)c3o2)cccc1-c1cccc(NC(=O)c2nc3c(s2)CN(C)CC3)c1Cl [Example 8, (S)-1-((7-chloro-2-(2′-chloro-2-methyl-3′-(5-methyl-4,5,6,7-tetrahydrothiazolo[5,4-c]pyridine-2-carboxamido)-[1,1′-biphenyl]-3-yl)benzo[d]oxazol-5-yl)methyl)piperidine-2-carboxylic acid] | ≤ 10 nM
7 | Cc1c(Nc2nccc3cc(CNC[C@@H](C)O)cnc23)cccc1-c1cccc(-c2nc3cc(CN4CC[C@@H](C(=O)O)C4)cc(C#N)c3o2)c1C [Example 147, (R)-1-((7-cyano-2-(3′-((3-((((R)-2-hydroxypropyl)amino)methyl)-1,7-naphthyridin-8-yl)amino)-2,2′-dimethyl-[1,1′-biphenyl]-3-yl)benzo[d]oxazol-5-yl)methyl)pyrrolidine-3-carboxylic acid] | ≤ 10 nM
8 | Cc1c(-c2nc3cc(CN4CC[C@@H](C(=O)O)C4)cc(C#N)c3o2)cccc1-c1cccc(-c2nc3c(s2)CN(C)CC3)c1C [Example 73] | ≤ 10 nM

The next lines start with the values.

Row | IC50 | Compound
9 | ≤ 10 nM | Cc1c(Nc2nccc3cc(CN4CC[C@@](C)(C(=O)O)C4)cnc23)cccc1-c1cccc(-c2nc3cc(CN4CC[C@@H](O)C4)cc(C#N)c3o2)c1C [Example 216, (R)-1-((8-(3′-(7-cyano-5-(((R)-3-hydroxypyrrolidin-1-yl)methyl)benzo [d]oxazol-2-yl)-2,2′-dimethylbiphenyl-3-ylamino)-1,7-naphthyridin-3-yl)methyl)-3-methylpyrrolidine-3-carboxylic acid]
10 | ≤ 10 nM | Cc1c(Nc2nccc3cc(CN4CC[C@@H](O)C4)cnc23)cccc1-c1cccc(-c2nc3cc(CN4CC5(C(=O)O)CC4C5)cc(C#N)c3o2)c1C [Example 178, (R)-2-((7-cyano-2-(3′-(3-((3-hydroxypyrrolidin-1-yl)methyl)-1,7-naphthyridin-8-ylamino)-2,2′-dimethylbiphenyl-3-yl)benzo[d]oxazol-5-yl)methyl)-2-aza bicyclo[2.1.1]hexane-4-carboxylic acid]
11 | ≤ 10 nM | Cc1c(Nc2nccc3cc(CN4CC[C@@H](O)C4)cnc23)cccc1-c1cccc(-c2nc3cc(CN[C@H]4CC[C@H](CC(=O)O)CC4)cc(C#N)c3o2)c1C [Example 184, 2-(trans-4-((7-cyano-2-(3′-(3-(((R)-3-hydroxypyrrolidin-1-yl)methyl)-1,7-naphthyridin-8-ylamino)-2,2′-dimethylbiphenyl-3-yl)benzo[d]oxazol-5-yl)methylamino)cyclohexyl)acetic acid]
12 | ≤ 10 nM | Cc1c(-c2nc3cc(CN4CC(C(=O)O)C4)cc(C#N)c3o2)cccc1-c1cccc(-n2cc3c(n2)CN(C(C)C)CC3)c1Cl [Example 239, 1-((2-(2′-chloro-3′-(6-isopropyl-4,5,6,7-tetrahydro-2H-pyrazolo[3,4-c]pyridin-2-yl)-2-methylbiphenyl-3-yl)-7-cyanobenzo[d]oxazol-5-yl)methyl)azetidine-3-carboxylic acid]
13 | ≤ 10 nM | Cc1c(-c2nc3cc(CN4CC[C@@H](O)C4)cc(C#N)c3o2)cccc1-c1cccc(NC(=O)c2nc3c(n2C)CCN(C[C@H]2CC[C@@H](C(=O)O)CC2)C3)c1Cl [Example 266, cis-4-((2-(2-chloro-3′-(7-cyano-5-(((R)-3-hydroxypyrrolidin-1-yl)methyl)benzo[d]oxazol-2-yl)-2′-methylbiphenyl-3-ylcarbamoyl)-1-methyl-6,7-dihydro-1H-imidazo[4,5-c]pyridin-5(4H)-yl)methyl)cyclohexane carboxylic acid]
14 | ≤ 10 nM | CNCc1cnc2c(Nc3cccc(-c4cccc(-c5nc6cc(CN7CC[C@@](C)(C(=O)O)C7)cc(C#N)c6o5)c4C)c3C)nccc2c1 [Example 197, (R)-1-((7-cyano-2-(2,2′-dimethyl-3′-(3-((methylamino)methyl)-1,7-naphthyridin-8-ylamino)biphenyl-3-yl)benzo[d]oxazol-5-yl)methyl)-3-methylpyrrolidine-3-carboxylic acid]
15 | ≤ 10 nM | Cc1c(Nc2nccc3cc(CN4CC[C@@H](O)C4)cnc23)cccc1-c1cccc(-c2nc3cc(CNCCc4ccc(C(=O)O)cc4)cc(C#N)c3o2)c1C [Example 171, (R)-4-(2-((7-cyano-2-(3′-(3-((3-hydroxypyrrolidin-1-yl)methyl)-1,7-naphthyridin-8-ylamino)-2,2′-dimethylbiphenyl-3-yl)benzo[d]oxazol-5-yl)methylamino)ethyl)benzoic acid]
16 | ≤ 10 nM | Cc1c(-c2nc3cc(CN4CC5(CC(C(=O)O)C5)C4)cc(C#N)c3o2)cccc1-c1cccc(-c2nc3c(s2)CN(C(=O)CN(C)[C@@H](C)CO)C3)c1C [Example 232, 2-((7-cyano-2-(3′-(5-(2-(((S)-1-hydroxypropan-2-yl)(methyl)amino)acetyl)-5,6-dihydro-4H-pyrrolo[3,4-d]thiazol-2-yl)-2,2′-dimethylbiphenyl-3-yl)benzo[d]oxazol-5-yl)methyl)-2-azaspiro[3.3]heptane-6-carboxylic acid]

From patent US10308644B2, “Heterocyclic compounds as immunomodulators” (Incyte Corporation, priority 2016, dated 2019)
